Where “and” joins values, the source holds several entries; their conditions need not be identical. Identical values can stand only once. Like-named read-outs stand apart in the source and are kept apart here.
Legend:
[1] = Fluorescence quantum yield in MeOH; format: physicochemical; details: for ΦF, MeOH: quantum yield for fluorescence in MeOH; for ΦF of sulfur analogue relative to selenium analogue: MeOH
P-gp = P-gp (Homo sapiens, UniProt P08183); details: cited from earlier work
HUT-78 cells = assay: Cellular uptake and extrusion of photosensitizer (flow cytometry MFI); format: cell-based; details: ±SE; for Uptake MFI: 2.5 × 10^−7 M photosensitizer, 20 minutes exposure; for % Extrusion: percent change in MFI after 18 hour extrusion period, 2.5 × 10^−7 M
Experimental: Cellular Uptake and Extrusion of Chalcogenorhodamine Photosensitizers. […] Cellular uptake of the chalcogenorhodamine photosensitizers was measured after a 20 minute exposure to 2.5×10^−7 M photosensitizer in malignant T cells (HUT-78 cells, Table 2). Transmembrane movement of the photosensitizers in the secretory direction (basolateral to apical) was measured after an 18-h extrusion period. As described above, the Se-containing molecules fluoresced at a lower intensity relative to the S-containing molecules. […] Overall, the PF6^− salts were more slowly extruded from cells relative to the chloride salts of the amide, with a greater difference in the extrusion kinetics noted between the thiorhodamine PF6 salts compared to the selenorhodamine chloride salts.

cytochrome c oxidase = details: whole cells, irradiation; cited from earlier work
[2] = Quantum yield for generation of singlet oxygen, time-resolved 1O2 phosphorescence; format: physicochemical; details: air-saturated MeOH, TMR-Se as reference
[3] = test system: immunomagnetically-selected CD3+ cells; assay: Phototoxicity: cell survival by FACS (Annexin 5/7AAD) 18 hours after PD; format: cell-based; details: 5.0×10^−8 M, 5 J/cm^2 light, FACS 18 hours after PD
Text: (§1) Selective phototoxicity of Chalcogenorhodamine Photosensitizers. Based on the rapid extrusion kinetics and low potential for toxicity in resting cells, we selected four amide-containing half-julolidine analogues for further analysis (2-S—Cl, 2-Se—Cl, 4-S—Cl, and 4-Se—Cl). These photosensitizers are associated with high singlet oxygen quantum yields (Table I). As a result, very low concentrations of these agents are required for phototherapy. For all PD experiments, immunomagnetically-selected CD3^+ cells were suspended in a photosensitizer-rich media of 5.0×10^−8 M for 20 minutes followed by 30 minutes in a photosensitizer-free media. Cells were then exposed to 5 J/cm^2 of light followed by real-time measurement of OCR and ECAR. […] We next evaluated the effects of PD on cell survival. For these experiments, FACS analysis was performed 18 hours after PD. Cell survival was identified by failure to bind Annexin 5 and 7AAD, and percent survival was calculated as the difference in the absolute number of cells between PD and control (non-PD samples) samples.

[4] = test system: immunomagnetically-selected CD3+ cells; assay: Phototoxicity: photodepletion (PD) of CD3+ cells, real-time OCR; format: cell-based; details: 5.0×10^−8 M 20 minutes, 30 minutes photosensitizer-free, 5 J/cm^2 light
Text: as §1

resting T cells = assay: Dark toxicity: bioenergetics (O2 consumption rate) of resting T cells; details: 5.0×10^−7 M
[5] = n-octanol / PBS pH 7.4, shake flask

Sequence of P-gp (P08183 whole entry): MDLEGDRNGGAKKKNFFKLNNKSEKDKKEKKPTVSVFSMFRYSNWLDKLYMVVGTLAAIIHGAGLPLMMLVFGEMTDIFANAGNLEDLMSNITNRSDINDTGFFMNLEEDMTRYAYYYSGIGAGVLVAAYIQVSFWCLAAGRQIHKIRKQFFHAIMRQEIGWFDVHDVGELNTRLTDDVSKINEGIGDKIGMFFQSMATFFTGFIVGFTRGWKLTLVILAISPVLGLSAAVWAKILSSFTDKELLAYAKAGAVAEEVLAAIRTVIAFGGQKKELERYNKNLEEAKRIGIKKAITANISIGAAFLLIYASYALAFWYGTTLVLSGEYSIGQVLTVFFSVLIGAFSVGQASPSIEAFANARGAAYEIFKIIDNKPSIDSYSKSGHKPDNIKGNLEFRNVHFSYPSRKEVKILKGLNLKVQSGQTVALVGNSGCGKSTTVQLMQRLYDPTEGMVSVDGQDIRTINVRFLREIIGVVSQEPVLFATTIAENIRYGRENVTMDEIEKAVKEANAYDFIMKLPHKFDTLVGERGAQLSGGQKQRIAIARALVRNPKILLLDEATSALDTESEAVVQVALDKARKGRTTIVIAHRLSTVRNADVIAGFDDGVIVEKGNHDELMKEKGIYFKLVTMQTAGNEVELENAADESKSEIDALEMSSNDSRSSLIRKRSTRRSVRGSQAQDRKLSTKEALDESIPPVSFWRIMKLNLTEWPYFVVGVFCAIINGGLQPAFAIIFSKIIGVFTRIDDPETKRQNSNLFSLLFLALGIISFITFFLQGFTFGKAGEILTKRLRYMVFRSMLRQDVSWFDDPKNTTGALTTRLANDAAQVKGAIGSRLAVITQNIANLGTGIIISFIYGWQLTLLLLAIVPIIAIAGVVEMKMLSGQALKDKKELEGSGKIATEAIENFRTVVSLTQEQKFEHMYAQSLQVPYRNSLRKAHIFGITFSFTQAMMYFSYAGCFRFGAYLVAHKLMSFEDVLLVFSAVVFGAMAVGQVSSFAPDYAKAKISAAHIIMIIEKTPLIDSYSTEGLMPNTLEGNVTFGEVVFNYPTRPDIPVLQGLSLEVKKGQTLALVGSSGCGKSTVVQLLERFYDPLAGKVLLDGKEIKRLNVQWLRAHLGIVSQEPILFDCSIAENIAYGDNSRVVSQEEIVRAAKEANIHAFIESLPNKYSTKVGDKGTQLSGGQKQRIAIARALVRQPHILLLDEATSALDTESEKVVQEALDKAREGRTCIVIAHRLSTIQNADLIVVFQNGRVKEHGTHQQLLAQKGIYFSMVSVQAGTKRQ

| ΦF of sulfur analogue relative to selenium analogue [1] | log P (pH 7.4) | Φ(^1O2), MeOH [2] | Structure (SMILES) | log P [5] | ΦF, MeOH [1] | effect on ATPase activity in P-gp (P-gp) | Uptake MFI (HUT-78 cells) | % Extrusion (HUT-78 cells) | cytochrome c oxidase activity in irradiated treated cells (cytochrome c oxidase) | cell death after PD [3] | effect of PD on basal OCR [4] | dark toxicity (resting T cells) |
| --- | --- | --- | --- | --- | --- | --- | --- | --- | --- | --- | --- | --- |
| – | – | – | CCN(CC)C(=S)c1ccc(-c2c3ccc(=[N+](C)C)cc-3sc3cc4c(cc23)C(C)(C)CCN4C)s1.F[P-](F)(F)(F)(F)F [3-S—PF6] | 1.7 | 0.07 ± 0.01 | inhibit ATPase activity | 45685 (±2726) | 84.91 (±1.57) % | – | – | – | – |
| roughly 30 fold | – | – | CN(C)c1ccc2c(-c3ccc(C(=S)N4CCCCC4)s3)c3cc4c5c(c3[s+]c2c1)CCCN5CCC4.[Cl-] [5-S—Cl] | 2.97 ± 0.06 | 0.30 ± 0.01 | – | 76661 (±5618) | 76.13 (±5.21) % | – | – | – | – |
| – | – | – | CN(C)c1ccc2c(-c3ccccc3)c3ccc(=[N+](C)C)cc-3sc2c1.[Cl-] [TMR-S] | – | – | – | – | – | light fluence-dependent inhibition of cytochrome c oxidase activity | – | – | – |
| – | 2.41 ± 0.04 | 0.54±0.03 | CCN(CC)C(=S)c1ccc(-c2c3ccc(=[N+](C)C)cc-3[se]c3cc4c(cc23)C(C)(C)CCN4C)s1.[Cl-] [3-Se—Cl, N-(6-(5-(diethylcarbamothioyl)thiophen-2-yl)-1,4,4-trimethyl-3,4-dihydro-1H-seleno-chromeno[3,2-g]quinolin-9(2H)-ylidene)-N-methylmethanaminium Chloride] | – | 0.008 ± 0.002 | – | 5480 (±666) | 88.65 (±1.21) % | – | – | – | – |
| – | – | – | CN(C)c1ccc2c(-c3ccc(C(=S)N4CCCCC4)s3)c3cc4c5c(c3[s+]c2c1)CCCN5CCC4.F[P-](F)(F)(F)(F)F [5-S—PF6] | 1.7 | 0.28 ± 0.01 | inhibit ATPase activity | 80192 (±4122) | 76.52 (±4.79) % | – | – | – | – |
| – | – | – | CN1CCC(C)(C)c2cc3c(-c4ccc(C(=O)N5CCCCC5)s4)c4ccc(=[N+](C)C)cc-4sc3cc21.[Cl-] [2-S—Cl] | 2.26 ± 0.04 | 0.09 ± 0.01 | – | 50993 | 92.70 (±0.74) % | – | Significant cell death | – | – |
| – | – | – | CN1CCC(C)(C)c2cc3c(-c4ccc(C(=S)N5CCCCC5)s4)c4ccc(=[N+](C)C)cc-4sc3cc21.[Cl-] [1-S—Cl] | 1.92 ± 0.08 | 0.07 ± 0.01 | – | 30070 (±2481) | 84.97 (±2.87) % | – | – | – | – |
| – | – | – | CCN(CC)C(=O)c1ccc(-c2c3ccc(=[N+](C)C)cc-3sc3cc4c(cc23)C(C)(C)CCN4C)s1.F[P-](F)(F)(F)(F)F [4-S—PF6] | 1.5 | 0.09 ± 0.01 | stimulate ATPase activity | 66500 | 92.20 (±0.55) % | – | – | – | – |
| – | 2.74 ± 0.02 | 0.23 ± 0.03 | CN(C)c1ccc2c(-c3ccc(C(=O)N4CCCCC4)s3)c3cc4c5c(c3[se+]c2c1)CCCN5CCC4.[Cl-] [6-Se—Cl, 12-(Dimethylamino)-2,3,6,7-tetrahydro-9-(N-piperidyl-2-thienyl-5-carboxamido)-1H,5H-selenoxantheno[2,3,4-ij]quinolizin-14-ium hexafluorophosphate(V)] | – | 0.011 ± 0.002 | – | 14910 | 88.39 (±1.13) % | – | – | – | – |
| – | – | – | CCN(CC)C(=S)c1ccc(-c2c3ccc(N(C)C)cc3[s+]c3c4c5c(cc23)CCCN5CCC4)s1.F[P-](F)(F)(F)(F)F [7-S—PF6] | 2.7 | – | inhibit ATPase activity | 87456 (±10089) | 73.25 (±2.15) % | – | – | – | – |
| – | – | – | CN(C)c1ccc2c(-c3ccc(C(=O)N4CCCCC4)s3)c3cc4c5c(c3[s+]c2c1)CCCN5CCC4.F[P-](F)(F)(F)(F)F [6-S—PF6] | 1.9 | 0.36 ± 0.01 | stimulate ATPase activity | 114190 | 82.54 (±1.17) % | – | – | – | – |
| – | – | 0.13±0.03 and 0.13 ± 0.02 | CN(C)c1ccc2c(-c3ccc(C(=S)N4CCCCC4)s3)c3cc4c5c(c3[se+]c2c1)CCCN5CCC4.[Cl-] [5-Se—Cl] | 3.00 ± 0.02 | 0.009 ± 0.002 | – | 12814 (±1256) | 85.03 (±2.90) % | – | – | – | – |
| – | – | – | CCN(CC)C(=O)c1ccc(-c2c3ccc(N(C)C)cc3[s+]c3c4c5c(cc23)CCCN5CCC4)s1.[Cl-] [8-S—Cl] | 2.65 ± 0.02 | – | – | 114750 | 78.55 (±2.35) % | – | – | – | not associated with any significant dark toxicity |
| – | – | – | CCN(CC)C(=S)c1ccc(-c2c3ccc(N(C)C)cc3[s+]c3c4c5c(cc23)CCCN5CCC4)s1.[Cl-] [7-S—Cl] | 2.55 ± 0.02 | – | – | 63950 (±5511) | 74.88 (±3.62) % | – | – | – | – |
| – | – | – | CN1CCC(C)(C)c2cc3c(-c4ccc(C(=O)N5CCCCC5)s4)c4ccc(=[N+](C)C)cc-4sc3cc21.F[P-](F)(F)(F)(F)F [2-S—PF6] | 1.2 | 0.09 ± 0.01 | stimulate ATPase activity | 71978 | 91.79 (±1.16) % | – | – | – | – |
| roughly 30 fold | – | – | CN(C)c1ccc2c(-c3ccc(C(=O)N4CCCCC4)s3)c3cc4c5c(c3[s+]c2c1)CCCN5CCC4.[Cl-] [6-S—Cl] | 2.69 ± 0.02 | 0.36 ± 0.01 | – | 122500 | 82.10 (±1.17) % | – | – | – | – |
| – | – | – | CCN(CC)C(=O)c1ccc(-c2c3ccc(=[N+](C)C)cc-3sc3cc4c(cc23)C(C)(C)CCN4C)s1.[Cl-] [4-S—Cl] | 2.16 ± 0.02 | 0.09 ± 0.01 | – | 64332 | 92.08 (±0.49) % | – | Significant cell death | – | not associated with any significant dark toxicity |
| – | – | – | CN1CCC(C)(C)c2cc3c(-c4ccc(C(=S)N5CCCCC5)s4)c4ccc(=[N+](C)C)cc-4sc3cc21.F[P-](F)(F)(F)(F)F [1-S—PF6] | 1.2 | 0.07 ± 0.01 | inhibit ATPase activity | 30229 (±1124) | 84.16 (±3.00) % | – | – | – | – |
| – | – | – | CCN(CC)C(=S)c1ccc(-c2c3ccc(=[N+](C)C)cc-3sc3cc4c(cc23)C(C)(C)CCN4C)s1.[Cl-] [3-S—Cl] | 1.98 ± 0.06 | 0.07 ± 0.01 | – | 38237 (±2684) | 86.81 (±0.89) % | – | – | – | – |
| – | 3.00 ± 0.02 | – | CCN(CC)C(=S)c1ccc(-c2c3ccc(N(C)C)cc3[se+]c3c4c5c(cc23)CCCN5CCC4)s1.[Cl-] [7-Se—Cl, 12-(Dimethylamino)-2,3,6,7-tetrahydro-9-(5-(diethylcarbamothioyl)-thiophen-2-yl)-1H,5H-selenoxantheno[2,3,4-ij]quinolizin-14-ium chloriode] | – | – | – | 14935 (±1810) | 81.23 (±2.56) % | – | – | – | – |

| Structure (SMILES) | ΦF of sulfur analogue relative to selenium analogue [1] | log P (pH 7.4) | Φ(^1O2), MeOH [2] | log P [5] | ΦF, MeOH [1] | effect on ATPase activity in P-gp (P-gp) | Uptake MFI (HUT-78 cells) | % Extrusion (HUT-78 cells) | cytochrome c oxidase activity in irradiated treated cells (cytochrome c oxidase) | cell death after PD [3] | effect of PD on basal OCR [4] | dark toxicity (resting T cells) |
| --- | --- | --- | --- | --- | --- | --- | --- | --- | --- | --- | --- | --- |
| CCN(CC)C(=O)c1ccc(-c2c3ccc(=[N+](C)C)cc-3[se]c3cc4c(cc23)C(C)(C)CCN4C)s1.[Cl-] [4-Se—Cl, N-(6-(5-(diethylcarbamoyl)thiophen-2-yl)-1,4,4-trimethyl-3,4-dihydro-1H-selenochromeno-[3,2-g]quinolin-9(2H)-ylidene)-N-methylmethanaminium Chloride] | – | – | 0.50 ± 0.03 | 2.26 ± 0.04 | 0.009 ± 0.001 | – | 5209 | 92.24 (±0.69) % | – | minimal cell death | did not significantly impede the basal OCR | – |
| CN1CCC(C)(C)c2cc3c(-c4ccc(C(=S)N5CCCCC5)s4)c4ccc(=[N+](C)C)cc-4[se]c3cc21.[Cl-] [1-Se—Cl, N-methyl-N-(1,4,4-trimethyl-6-(5-(piperidine-1-carbonothioyl)thiophen-2-yl)-3,4-dihydro-1H-selenochromeno[3,2-g]quinolin-9(2H)-ylidene)methanaminium Chloride] | – | – | 0.44 ± 0.03 | 1.61 ± 0.06 | 0.008 ± 0.001 | – | 6162 (±633) | 90.06 (±1.95) % | – | – | – | – |

Source: patent US20170096636A1, “METHODS AND COMPOUNDS FOR PHOTOTHERAPY WITH CHALCOGENORHODAMINE PHOTOSENSITIZERS” (Wake Forest University Health Sciences, priority 2014, published 2017)
